Assay results from US12006314B2, “Anti-cancer nuclear hormone receptor-targeting compounds” (Nuvation Bio Inc., priority 2021, dated 2024).
Positions count from the first letter of the chain named.

Tests used:
[1] = biological target: T1, AR (cytosol from LnCaP cells) (Homo sapiens, UniProt P10275, T878A); experiment: AR binding assay; details: 3H-R1881 1 nM, 4° C. 24 hrs
T1 construct: endogenous in cells; host or cells: LNCaP cytosol
T1 sequence (P10275 1-920 T878A): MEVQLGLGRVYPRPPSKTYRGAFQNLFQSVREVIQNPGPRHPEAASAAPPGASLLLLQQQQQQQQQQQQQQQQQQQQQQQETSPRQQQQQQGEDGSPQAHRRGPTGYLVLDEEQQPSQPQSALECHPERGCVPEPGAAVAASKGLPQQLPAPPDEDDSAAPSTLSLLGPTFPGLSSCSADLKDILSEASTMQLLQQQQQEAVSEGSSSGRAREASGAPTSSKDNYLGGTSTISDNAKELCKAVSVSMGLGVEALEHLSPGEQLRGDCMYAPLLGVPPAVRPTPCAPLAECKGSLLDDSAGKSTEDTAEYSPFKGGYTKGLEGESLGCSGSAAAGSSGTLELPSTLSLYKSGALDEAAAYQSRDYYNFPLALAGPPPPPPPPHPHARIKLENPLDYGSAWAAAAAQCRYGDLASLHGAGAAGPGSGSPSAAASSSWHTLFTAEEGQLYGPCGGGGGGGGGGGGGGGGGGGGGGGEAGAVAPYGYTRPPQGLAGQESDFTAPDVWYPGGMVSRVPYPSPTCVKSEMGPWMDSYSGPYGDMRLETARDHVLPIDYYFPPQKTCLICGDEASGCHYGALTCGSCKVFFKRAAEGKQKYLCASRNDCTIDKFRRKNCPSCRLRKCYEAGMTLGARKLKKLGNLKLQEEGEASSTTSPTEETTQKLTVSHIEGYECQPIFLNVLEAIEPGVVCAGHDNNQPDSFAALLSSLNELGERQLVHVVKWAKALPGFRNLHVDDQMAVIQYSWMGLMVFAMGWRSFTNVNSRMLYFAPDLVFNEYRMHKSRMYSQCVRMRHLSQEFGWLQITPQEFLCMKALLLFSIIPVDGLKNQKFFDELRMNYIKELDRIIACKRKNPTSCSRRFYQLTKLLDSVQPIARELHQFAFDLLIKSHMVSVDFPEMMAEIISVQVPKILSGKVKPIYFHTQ
Method: AR binding assay: To assess AR binding, test compound (top dose 10 μM, 4 fold serial dilution, 8 point dose response) and control (progesterone) were transferred to the assay plate. Cytosol from LnCaP cells was added to the plate, followed by addition of radiolabeled ^3H-R1881 at a final concentration of 1 nM. The plate was sealed, and the reaction was incubated at 300 rpm at 4° C. for 24 hrs. Radioligand absorption buffer (10 mM Tris-HCl, pH 7.4; 1.5 mM EDTA; 1 mM DTT; 0.25% charcoal; 0.0025% dextran) was then added to the plate, mixed, and incubated at 4° C. for 15 minutes. The plate was then centrifuged at 3000 rpm for 30 minutes at 4° C. The supernatant was transferred to the scint-tube and Tri-carb was used for scintillation counting.

[2] = biological target: T2, full-length androgen receptor (HEK293 cells stably expressing) (Homo sapiens, UniProt P10275); experiment: AR antagonism assay; assay type: cell-based; details: testosterone 1 nM, 20 h, Steady-glo
T2 construct: HEK293 cells stably expressing the full-length androgen receptor were seeded; expressed in transfected cells
T2 sequence (P10275 1-920): T1 sequence (P10275 1-920 T878A) with A878T
Method: AR antagonism assay: To evaluate AR antagonist activity, test compound was added to the assay plate (top dose 10 μM, 3 fold serial dilution, 10 point dose response). HEK293 cells stably expressing the full-length androgen receptor were seeded at a density of 20000 cells/well in the assay plate. The assay plate was then incubated at room temperature for 10 minutes and at 37° C., 5% CO2 for 20 minutes. Testosterone is added to the assay plate at 1 nM final concentration and the assay plate incubated at 37° C., 5% CO2 for 20 h. After the incubation period, Steady-glo was added to the assay plate and mixed at room temperature for 20 minutes on an orbital shaker, before reading out on the EnVision plate reader.

LNCap cells = experiment: Cell viability assay LNCap; assay type: cell-based; details: Homo sapiens, 144 h, 6 days, CellTiterGlo
Method: (§1) Cell viability assay: LNCap, 22Rv1, MCF7, MDAMB361, T47D, and IEC6 cells were seeded at a density of 500-2000 cells/well in 96 well plates, and a ‘T0’ (timepoint 0) was included along with the assay plate. The plates were then incubated at 37° C., 5% CO2 in a cell culture incubator overnight. On the next day, the ‘T0’ plate was assayed using CellTiterGlo (Promega, Inc) according to the manufacturer's instructions. The appropriate compounds were diluted in DMSO and added to the assay plate (final DMSO concentration of 0.1-0.2%) on the next day. The assay plates were incubated for 6 days at 37° C., 5% CO2. After the incubation period, the plates were assayed using CellTiterGlo (Promega, Inc) according to the manufacturer's instructions and luminescence was read on the EnVision plate reader. Inhibition of the tested compounds was determined by the following formula: Inhibition rate (%)=(1−(RLU compound−RLU day0)/(RLU control−RLU day0))*100%. GraphPadPrism was used to analyze the data and determine GI50/IC50 values.

22Rv1 cells = experiment: Cell viability assay 22Rv1; assay type: cell-based; details: Homo sapiens, 22Rv1, 144 h; 6 days, CellTiterGlo
Method: as §1

IEC6 cells = experiment: Cell viability assay IEC6; assay type: cell-based; details: Rattus norvegicus, IEC-6, 144 h; 6 days, CellTiterGlo
Method: as §1

[3] = biological target: T3, ER (SK-BR-3 cells transfected with ERE plasmid and ER) (Homo sapiens, UniProt P03372); experiment: ER antagonism assay; assay type: cell-based; details: 100 nM β-Estradiol, 24 h, Dual-glo luciferase
T3 construct: expressed in transfected cells; host or cells: SK-BR-3 (transient, lipofectamine 3000)
T3 sequence (P03372 1-595): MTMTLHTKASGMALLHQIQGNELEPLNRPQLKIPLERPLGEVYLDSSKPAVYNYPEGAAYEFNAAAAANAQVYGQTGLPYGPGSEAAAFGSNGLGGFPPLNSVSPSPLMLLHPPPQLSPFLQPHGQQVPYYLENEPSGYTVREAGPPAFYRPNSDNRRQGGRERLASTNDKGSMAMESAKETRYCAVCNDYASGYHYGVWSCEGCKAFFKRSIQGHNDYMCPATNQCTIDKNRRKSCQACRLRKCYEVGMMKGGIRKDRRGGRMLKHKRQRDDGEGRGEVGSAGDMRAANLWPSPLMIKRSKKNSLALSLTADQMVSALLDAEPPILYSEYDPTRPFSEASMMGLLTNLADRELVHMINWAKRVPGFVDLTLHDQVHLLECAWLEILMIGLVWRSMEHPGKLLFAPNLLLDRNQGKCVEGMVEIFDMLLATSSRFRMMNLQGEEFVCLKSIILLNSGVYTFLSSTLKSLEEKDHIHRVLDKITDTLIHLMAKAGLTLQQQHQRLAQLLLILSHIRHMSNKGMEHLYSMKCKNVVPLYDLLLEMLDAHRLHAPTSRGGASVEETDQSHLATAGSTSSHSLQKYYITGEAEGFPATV
Method: ER antagonism assay: To evaluate ER antagonist activity, SK-BR-3 cells were seeded at a density of 30000 cells/well in the assay plate. The assay plate was then incubated at 37° C., 5% CO2 for 24 h. A mixture of ERE plasmid and ER in opti-MEM media was incubated with lipofectamine 3000 in Opti-MEM media and incubated at room temperature for 15 minutes. 10 μL of this transfection mix was added to each well of the assay plate and the assay plate was incubated at 37° C., 5% CO2 for 24 h. 100 nM β-Estradiol in 10 μL medium or 10 μL medium (control wells) was added to corresponding wells of assay plate and incubated at 37° C. 5% CO2 for 24 h. After the incubation period, 50 μL of Dual-glo luciferase reagent was added to the assay plate and mixed at room temperature for 20 mins on an orbital shaker, before reading out on the EnVision plate reader. 50 μL of Stop & Glo reagent was added to assay plate, mixed at room temperature for 20 minutes, and read on the Envision plate reader.

MCF7 cells = experiment: Cell viability assay MCF7; assay type: cell-based; details: Homo sapiens, MCF7, 144 h; 6 days, CellTiterGlo
Method: as §1

MDAMB361 cells = experiment: Cell viability assay MDAMB361; assay type: cell-based; details: Homo sapiens, MDA-MB-361, 144 h; 6 days, CellTiterGlo
Method: as §1

Row | Compound | IC50 [1] [µM] | IC50 [2] [µM] | GI50 (LNCap cells) [µM] | GI50 (22Rv1 cells) [µM] | IC50 (IEC6 cells) [µM] | IC50 [3] [µM] | GI50 (MCF7 cells) [µM] | GI50 (MDAMB361 cells) [µM]
1 | CCc1cc2ncc(CN3CCN(CC4CCN(c5ccc(C(=O)N[C@H]6CC[C@H](Oc7ccc(C#N)c(Cl)c7C)CC6)nn5)CC4)CC3)cc2[nH]c1=O [Compound 66, N-((1r,4r)-4-(3-Chloro-4-cyano-2-methylphenoxy)cyclohexyl)-6-(4-((4-((7-ethyl-6-oxo-5,6-dihydro-1,5-naphthyridin-3-yl)methyl)piperazin-1-yl)methyl)piperidin-1-yl)pyridazine-3-carboxamide] | < 0.1 | > 10 | ≤ 0.5 | ≤ 0.5 | 0.5 to 5 |  |  | 
2 | CCc1cc2ncc(CN3CCN(CC4CCN(c5ccc(C(=O)N[C@H]6CC[C@H](N(C)c7ccc(C#N)c(Cl)c7)CC6)nn5)CC4)CC3)cc2[nH]c1=O [Compound 67, N-((1R,4R)-4-((3-Chloro-4-cyanophenyl)(methyl)amino)cyclohexyl)-6-(4-((4-((7-ethyl-6-oxo-5,6-dihydro-1,5-naphthyridin-3-yl)methyl)piperazin-1-yl)methyl)piperidin-1-yl)pyridazine-3-carboxamide] | < 0.1 | > 10 | ≤ 0.5 | ≤ 0.5 | > 30 |  |  | 
3 | CCc1cc2ncc(CN3CCN(Cc4ccc(-c5nnc([C@H](Nc6ccc(C#N)c(Cl)c6)[C@H](C)O)o5)cc4)CC3)cc2[nH]c1=O [Compound 68, 2-Chloro-4-(((1R,2S)-1-(5-(4-((4-((7-ethyl-6-oxo-5,6-dihydro-1,5-naphthyridin-3-yl)methyl)piperazin-1-yl)methyl)phenyl)-1,3,4-oxadiazol-2-yl)-2-hydroxypropyl)amino)benzonitrile] | > 10 | > 10 | 0.5 to 5 | 5 to 30 | > 30 |  |  | 
4 | CCc1cc2ncc(CN3CCN(Cc4ccc(-c5nnc([C@H](Nc6ccc(C#N)c(Cl)c6C)[C@H](C)O)o5)cc4)CC3)cc2[nH]c1=O [Compound 69, 2-Chloro-4-(((1R,2S)-1-(5-(4-((4-((7-ethyl-6-oxo-5,6-dihydro-1,5-naphthyridin-3-yl)methyl)piperazin-1-yl)methyl)phenyl)-1,3,4-oxadiazol-2-yl)-2-hydroxypropyl)amino)-3-methylbenzonitrile] | > 10 | > 10 | 0.5 to 5 | 5 to 30 | > 30 |  |  | 
5 | CCc1cc2ncc(CN3CCN(C(=O)[C@H]4CC[C@H](COc5cc(F)c([C@@H]6c7[nH]c8ccccc8c7C[C@@H](C)N6CC(C)(C)F)c(F)c5)CC4)CC3)cc2[nH]c1=O [Compound 70, 7-((4-((1r,4r)-4-((3,5-Difluoro-4-((1R,3R)-2-(2-fluoro-2-methylpropyl)-3-methyl-2,3,4,9-tetrahydro-1H-pyrido[3,4-b]indol-1-yl)phenoxy)methyl)cyclohexane-1-carbonyl)piperazin-1-yl)methyl)-3-ethyl-1,5-naphthyridin-2(1H)-one] |  |  |  |  | > 30 | ≤ 0.1 | 5 to 30 | ≤ 0.5
